Patent US6316439A, “Galanthamine derivatives as acetylcholinesterase inhibitors” (priority 1993, dated 2001)
Structures can show the parent of a compound that is named as a salt. Where two headings read alike, the source gives them in different places.

How the values were obtained:
[1] = tested on: mice; test: Dark Avoidance Assay (SDDA), reversal of scopolamine induced memory deficit; type: in vivo; conditions: s.c., retest after 24 hours
Procedure: This utility can also be ascertained by determining the ability of these compounds to restore cholinergically deficient memory in the Dark Avoidance Assay. In this assay mice are tested for their ability to remember an unpleasant stimulus for a period of 24 hours. A mouse is placed in a chamber that contains a dark compartment; a strong incandescent light drives it to the dark compartment, where an electric shock is administered through metal plates on the floor. The animal is removed from the testing apparatus and tested again, 24 hours later, for the ability to remember the electric shock.
If scopolamine, an anticholinergic that is known to cause memory impairment, is administered before an animal's initial exposure to the test chamber, the animal re-enters the dark compartment shortly after being placed in the test chamber 24 hours later. This effect of scopolamine is blocked by an active test compounds, resulting in a greater interval before re-entry into the dark compartment.
The test results are expressed as the percent of a group of animals in which the effect of scopolamine is blocked, as manifested by an increased interval between being placed in the test chamber and reentering the dark compartment. Results of Dark Avoidance Assay for some of the compounds of this invention are presented in Table II along with a result for a reference compounds.

[2] = target: acetylcholinesterase (Homo sapiens, UniProt P22303); test: Acetylcholinesterase Inhibition Assay (photometric method of Ellman et al.); type: biochemical
acetylcholinesterase, sequence (P22303 32-614): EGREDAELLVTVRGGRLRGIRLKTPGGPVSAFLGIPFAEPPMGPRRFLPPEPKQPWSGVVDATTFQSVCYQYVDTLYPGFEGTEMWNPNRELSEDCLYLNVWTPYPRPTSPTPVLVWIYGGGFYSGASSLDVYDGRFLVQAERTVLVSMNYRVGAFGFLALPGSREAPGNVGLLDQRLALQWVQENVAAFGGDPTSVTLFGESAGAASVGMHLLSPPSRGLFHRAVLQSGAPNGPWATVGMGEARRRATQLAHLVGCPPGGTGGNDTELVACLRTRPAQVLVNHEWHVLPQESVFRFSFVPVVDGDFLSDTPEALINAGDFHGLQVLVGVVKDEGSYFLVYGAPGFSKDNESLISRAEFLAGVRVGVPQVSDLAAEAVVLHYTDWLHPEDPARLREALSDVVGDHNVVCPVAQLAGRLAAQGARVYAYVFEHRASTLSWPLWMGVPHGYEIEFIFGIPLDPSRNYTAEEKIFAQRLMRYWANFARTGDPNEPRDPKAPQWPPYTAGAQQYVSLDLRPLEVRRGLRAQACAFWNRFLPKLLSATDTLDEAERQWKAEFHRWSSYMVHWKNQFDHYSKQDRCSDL

| Compound | Percent of Animals with Scopolamine Induced Memory Deficit Reversal ([1]; 0.10 mg/kg) | further results |
| --- | --- | --- |
| CC(C)OC(=O)OC1C=CC23CCN(C)Cc4ccc(OC(=O)C(C)(C)C)c(c42)OC3C1.Cl.O (stereo not drawn) [6-O-Demethyl-3-O-(2-propoxy-carbonyl)-6-O-(t-butylcarbonyl)-galanthamine hydrochloride hydrate] | 53% of Animals | – |
| CC(C)OC(=O)Oc1ccc2c3c1O[C@H]1C[C@@H](O)C=C[C@@]31CCN(C)C2 [6-O-Demethyl-6-O-(2-propoxycarbonyl)galanthamine] | – | IC50 [2]: 1610 nM |
| CN1CC[C@@]23C=C[C@H](O)C[C@@H]2Oc2c(OC(=O)C(C)(C)C)ccc(c23)C1 [6-O-Demethyl-6-O-(trimethylacetyl)-galanthamine] | 53% of Animals | – |
| CN1CC[C@@]23C=C[C@H](O)C[C@@H]2Oc2c(OC(=O)C(C)(C)C)ccc(c23)C1 [Example 3, 6-O-Demethyl-6-O-(t-butylcarbonyl)galanthamine hydrochloride] | – | IC50 ([2]; photometric method of Ellman et al., read-out: IC50 CHE I): 2690 nM |
| CC(C)OC(=O)Oc1ccc2c3c1O[C@H]1C[C@@H](O)C=C[C@@]31CCN(C)C2 [Example 9, 6-O-Demethyl-6-O-(prop-2-yl-oxycarbonyl)galanthamine hydrochloride] | 33% of Animals | – |
| Nc1c2c(nc3ccccc13)CCCC2 [Tacrine, reference compound] | – | Percent of Animals with Scopolamine Induced Memory Deficit Reversal ([1]; 0.31 mg/kg): 33% of Animals |
